According to patent US20050261236A1, “Agonists of A2A adenosine receptors for treatment of diabetic nephropathy” (priority 2004, published 2005):

Assays:
[1] = tested on: STZ (45 mg/kg) Diabetic Model; assay: Blood glucose, body weight, systolic blood pressure and urine volume in STZ diabetic model; format: in vivo, rats; conditions: for 24 h Urine Volume / Body Weight / Systolic Blood Pressure: Diabetes + ATL146e (10 ng/kg/min); for 24 h Urine Volume / Body Weight / Systolic Blood Pressure / Blood Glucose: STZ rats; for Blood Glucose: Diabetes + ATL146e (10 ng/kg/min, osmotic minipump)
Method: Effects of ATL146e on Blood Glucose, Body Weight, Systolic Blood Pressure and Urine Volume in STZ (45 mg/kg) Diabetic Model (n=5 Each Group) Rats were administered ATL146e (10 ng/kg/min) or vehicle by osmotic minipumps prior to the induction of diabetes by STZ […] and followed for up to 6 week. Table 1, below illustrates the effect of STZ on blood glucose, body weight, systolic blood pressure and 24 hours of urine volume as well as the effect of ATL146e. Table 1 summarizes the data for blood glucose (BG), body weight (BW), systolic blood pressure (SBP) and 24 hour urinary volume (UV). Basal BG level was 74±4 mg/dl and increased to 325±4 mg/dl 48 hours after STZ-induction of diabetes and continued to be elevated at 3 and 6 weeks of the study period. Normal rats gained weight as expected. […] There were no significant changes in SBP, 3 weeks after STZ-induction of diabetes between all groups.

TNF-alpha = assay: Urinary and plasma TNF-alpha in diabetes; format: in vivo, rats
Method: (§1) Rats were administered ATL146e (10 ng/kg/min) or vehicle by osmotic minipumps prior to the induction of diabetes by STZ (50 mg/kg, iv) and followed for up to 6 week. Table 1, below illustrates the effect of STZ on blood glucose, body weight, systolic blood pressure and 24 hours of urine volume as well as the effect of ATL146e. Urinary TNF-alpha was not different between groups before STZ treatment. […] Results are illustrated in FIG. 3.

[2] = tested on: Nitric Oxide End Products (Nitrite and Nitrate) (NOX); assay: Urinary nitric oxide end products (nitrite and nitrate) (NOX) in diabetes; format: in vivo; conditions: diabetic rats, 6 week after STZ induction, FIG. 4, in words
Method: as §1, with “As shown to the right, NOX (as an indicator of endothelial function in the kidney)” for “Urinary TNF-alpha”, “decreased in diabetes group at 6 week after” for “not different between groups before”, “induction of diabetes. The decreased in NOX was improved by ATL146e.” for “treatment.”, “4.” for “3.”

[3] = tested on: STZ-induced diabetic animal model; assay: Urinary albumin excretion in diabetes; format: in vivo; conditions: STZ diabetic rats, 24 hour urine, FIG. 1, in words
Method: Rats were administered ATL146e (10 ng/kg/min) or vehicle by osmotic minipumps prior to the induction of diabetes by STZ (50 mg/kg, iv) and followed for up to 6 week. Table 1, below illustrates the effect of STZ on blood glucose, body weight, systolic blood pressure and 24 hours of urine volume as well as the effect of ATL146e. Urine collections were obtained for 24 hours for measurement of urinary albumin excretion (UAE). UAE rate was 135±35 μg/24 hours at baseline and increased to 1265±500 μg/24 hours and 2921±335 μg/24 hours (P<0.0001) at week 2 and 6, respectively in the diabetic group. […] Results are illustrated in FIG. 1.

fibronectin mRNA = assay: Fibronectin mRNA (polymerase chain reaction) after induction of diabetes; format: in vivo; conditions: RNA from diabetic rats, PCR, FIG. 5, in words
Method: RNA from diabetic rats were extracted and subjected to polymerase chain reaction to examine profibrogenic factors. […] Trichrome stain of kidneys from diabetic rats treated with vehicle for 6 weeks (Panels a, c) or ATL146e-10 ng/kg/min (Panels b, d). Magnification ×400. Each panel represents a photograph from a different test animal. Results are illustrated in FIG. 5.

diabetic rats = assay: Plasma creatinine in diabetes; format: in vivo; conditions: diabetic rats versus vehicle, FIG. 2, in words
Method: as §1, with “ATL146e.” for “ATL146e. Urinary TNF-alpha was not different between groups before STZ treatment.”, “2.” for “3.”

For CCNC(=O)C1OC(n2cnc3c(N)nc(C#CCC4CCC(C(=O)OC)CC4)nc32)C(O)C1O (stereo not drawn) [ATL146e, 4-{3-[6-Amino-9-(5-ethylcarbamoyl-3,4-dihydroxytetrahydro-furan-2-yl)-9H-purin-2-yl]-prop-2-ynyl}cyclo-hexanecarboxylic acid methyl ester], the “24 h Urine Volume” value ([1]; Baseline) was 15 ± 2 mL, the “Body Weight” value ([1]; Baseline) was 250 ± 13 g and the “24 h Urine Volume” value ([1]; Week 2) was 53 ± 13 mL. The “Body Weight” value ([1]; Week 3) was 323 ± 13 g, the “Systolic Blood Pressure” value ([1]; Week 3) was 123 ± 4 mmHg and the “24 h Urine Volume” value ([1]; Week 4) was 57 ± 15 mL. For the same molecule, the “24 h Urine Volume” value ([1]; Week 6) was 59 ± 23 mL, the “Body Weight” value ([1]; Week 6) was 358 ± 24 g and the “Systolic Blood Pressure” value ([1]; Week 6) was 114 ± 2 mmHg. The “Blood Glucose” value ([1]; Baseline) was 75 ± 5 mg/dL, the “Blood Glucose” value ([1]; Week 1) was 311 ± 37 mg/dL and the “Blood Glucose” value ([1]; Week 6) was 359 ± 23 mg/dL. For the same molecule, the “Effect on the increase in SBP observed in diabetes with no treatment” value ([1]; STZ diabetic rats, after 6 weeks, in words) was “restored the increase in SBP”, the “24 hour urinary volume (UV)” value ([1]; diabetes+ATL146e group after STZ-induction, throughout study period, in words) was “increased significantly” and the “Increase in BW” value ([1]; diabetes+ATL146e rats versus normal rats of matched age, in words) was “modest and significant from normal rats”. For the same molecule, the “Plasma TNF-alpha” value (TNF-alpha; all groups, any point of the study periods (data not shown)) was “not detectable”, the “Effect on the increase in TNF-alpha (printed: Plasma TNF-alpha)” value (TNF-alpha; diabetic rats, 6 week after diabetes, FIG. 3, in words) was “significantly (P<0.05) reduced the increase in Plasma TNF-alpha” and the “Effect on decreased urinary NOX” value [2] was “restored to normal levels”. For the same molecule, the “Effect on urinary albumin excretion (UAE)” value [3] was “minimizes the increase of UAE”, the “Effect on the increase in fibronectin mRNA induced by diabetes” value (fibronectin mRNA) was “reduced to levels near control” and the “Effect on the increase in plasma creatinine” value (diabetic rats) was “significantly restored to normal”.
